Source: patent US4032529A, “Aminomethanobenzazocine intermediates” (Sterling Drug Inc., priority 1975, dated 1977)
Counter-ions that a name gives are not always drawn.

Tested on: acetylcholine-induced writhing in mice
Assay: acetylcholine writhing test, a primary screening test for analgesia
Assay type: in vivo
Conditions: Mus musculus, sc, 20 min; subcutaneous; mice dosed 20 minutes prior to acetylcholine 3.2 mg./kg. intraperitoneal; 2-minute observation; probit analysis
Method: All of the compounds of Formula I of the examples were tested and determined to be active in the acetylcholine writhing test, a primary screening test for analgesia. In this test the ability of test compounds to prevent acetylcholine-induced writhing in mice is determined. The following is an adaptation of the method of Collier and co-workers (Brit. J. Pharmacol. Chemother., 32, 295(1968)) by Anne K. Pierson. […] The mice are dosed with the test compound plus vehicle or vehicle alone (controls) 20 minutes prior to, and are observed for 2 minutes after, the acetylchloine injection. During the 2-minute observation period mice not responding by writhing are scored protected and mice responding by writhing one or more times are scored not protected. The mice are dosed orally (usually at 150-200 mg./kg.) or subcutaneously (usually at 75-100 mg./kg.). Fifteen mice per does level are used. ED50 values for active compounds are calculated by probit analysis (C. I. Bliss, The Statistics of Bioassay, Academic Press, New York, 1952) of quantal scores of tests at four or more appropriate dose levels. The following subcutaneous ED50 values for the compounds of Formula I of the examples were determined.

SMILES | ED50
C[C@@H]1[C@@H]2Cc3ccc(N)cc3[C@@]1(C)CCN2CC1CC1 (relative stereo) [Example 1B, 8-amino-3-(cyclopropylmethyl)-1,2,3,4,5,6-hexahydro-cis-6,11-dimethyl-2,6-methano-3-benzazocine dihydrochloride] | 0.8 mg/kg
C[C@@H]1[C@@H]2Cc3ccc(NCC4CC4)cc3[C@@]1(C)CCN2CC1CC1 (relative stereo) [Example 2E, 3-(cyclopropylmethyl)-8-(cyclopropylmethylamino)-1,2,3,4,5,6-hexahydro-cis-6,11-dimethyl-2,6-methano-3-benzazocine hydrochloride] | 0.7 mg/kg
CNc1ccc2c(c1)[C@@]1(C)CCN(CC3CC3)[C@@H](C2)[C@H]1C (relative stereo) [Example 3B, 3-(cyclopropylmethyl)-1,2,3,4,5,6-hexahydro-cis-6,11-dimethyl-8-(methylamino)-2,6-methano-3-benzazocine dihydrochloride ethanolate hydrate] | 0.44 mg/kg
C[C@@H]1[C@@H]2Cc3ccc(N(C)C)cc3[C@@]1(C)CCN2CC1CC1 (relative stereo) [Example 4F, 3-cyclopropylmethyl-8-dimethylamino-cis-6,11-dimethyl-1,2,3,4,5,6-hexahydro-2,6-methano-3-benzazocine dihydrochloride] | 0.79 mg/kg
CC(C)CN1CC[C@]2(C)c3cc(N)ccc3C[C@H]1[C@H]2C (relative stereo) [Example 5C, 8-amino-1,2,3,4,5,6-hexahydro-3-isobutyl-cis-6,11-dimethyl-2,6-methano-3-benzazocine dihydrochloride] | 1.5 mg/kg
CCCN1CC[C@]2(C)c3cc(N)ccc3C[C@H]1[C@H]2C (relative stereo) [Example 6C, 8-amino-cis-6,11-dimethyl-1,2,3,4,5,6-hexahydro-3-propyl-2,6-methano-3-benzazocine dihydrochloride sesquihydrate] | 5.6 mg/kg
C[C@@H]1[C@@H]2Cc3ccc(NCc4ccccc4)cc3[C@@]1(C)CCN2CC1CC1 (relative stereo) [Example 7, 3-(cyclopropylmethyl)-1,2,3,4,5,6-hexahydro-cis-6,11-dimethyl-8-benzylamino-2,6-methano-3-benzazocine dihydrochloride] | 1.6 mg/kg
C=CCN1CC[C@]2(C)c3cc(N)ccc3C[C@H]1[C@H]2C (relative stereo) [Example 8C, 8-amino-1,2,3,4,5,6-hexahydro-cis-6,11-dimethyl-3-(2-propenyl)-2,6-methano-3-benzazocine dihydrochloride] | 2.5 mg/kg
CCNc1ccc2c(c1)[C@@]1(C)CCN(CC3CC3)[C@@H](C2)[C@H]1C (relative stereo) [Example 9B, 3-(cyclopropylmethyl)-8-(ethylamino)-1,2,3,4,5,6-hexahydro-cis-6,11-dimethyl-2,6-methano-3-benzazocine] | 1.3 mg/kg
CCCNc1ccc2c(c1)[C@@]1(C)CCN(CC3CC3)[C@@H](C2)[C@H]1C (relative stereo) [Example 10B, 3-(cyclopropylmethyl)-1,2,3,4,5,6-hexahydro-cis-6,11-dimethyl-8-(propylamino)-2,6-methano-3-benzazocine] | 1.2 mg/kg
CCCCNc1ccc2c(c1)[C@@]1(C)CCN(CC3CC3)[C@@H](C2)[C@H]1C (relative stereo) [Example 11B, 8-(butylamino)-3-(cyclopropylmethyl)-1,2,3,4,5,6-hexahydro-cis-6,11-dimethyl-2,6-methano-3-benzazocine] | 1 mg/kg
CC[C@@H]1[C@@H]2Cc3ccc(N)cc3[C@@]1(CC)CCN2CC1CC1 (relative stereo) [Example 12H, 8-amino-3-(cyclopropylmethyl)-cis-6,11-diethyl-1,2,3,4,5,6-hexahydro-2,6-methano-3-benzazocine dihydrochloride] | 1.3 mg/kg
